From paper PMC8952208, “Synthesis, Antiplasmodial, and Antileukemia Activity of Dihydroartemisinin–HDAC Inhibitor Hybrids as Multitarget Drugs” (Pharmaceuticals, 2022)

Tests used:
[1] = system: acetylation of histone H3 (marker of HDAC1 inhibition); assay: Immunoblotting, acetyl-histone H3 in K562 cells; type: cell-based, human; conditions: 0.4 µM, 24 h
Description: (§1) K562 cells were treated with the indicated concentration of the compounds or vehicle control (DMSO) for 24 h. The recovered cell pellets were lysed with RIPA buffer (50 mM Tris-HCl pH 8.0, 1% Triton X-100, 0.5% sodium deoxycholate, 0.1% SDS, 150 mM sodium chloride, and 2 mM EDTA), supplemented with protease and phosphatase inhibitors (Thermofischer Scientific, Waltham, MA, USA). An equal amount of total protein (20 µg) was resolved by SDS-PAGE and followed by transfer on nitrocellulose membrane (Sigma-Aldrich). PageRuler prestained protein ladder, 10 kDa to 180 kDa (Thermofisher Scientific, Waltham, MA, USA) was used as a protein molecular weight marker.

[2] = system: acetylation of α-tubulin (marker of HDAC6 inhibition); assay: Immunoblotting, acetyl-α-tubulin in K562 cells; type: cell-based, human; conditions: 0.4 µM, 24 h
Description: as §1

Compound: O=C(CCCCCCC(=O)Nc1ccccc1)NO [Vorinostat, vorinostat]
- acetylation of histone H3 (immunoblot) [1]: caused hyperacetylation of α-tubulin and histone H3
- acetylation of α-tubulin (immunoblot) [2]: caused hyperacetylation of α-tubulin and histone H3
